According to patent publication US20080152640A1, “Means and Methods For Treating a Disease Which is Associated With an Excess Transport of Hyaluronan Across a Lipid Bilayer” (priority 2003, published 2008):
Like-named read-outs stand apart in the source and are kept apart here.

Legend:
MRP transporters = MRP transporters (Homo sapiens, UniProt P33527); settings: read-out: IC50 for MRP transporter; cited from earlier work
hyaluronan transport = assay: Inhibition of hyaluronan transport (export) from human fibroblasts, discussion of Example 9; settings: for inhibition of hyaluronan transport (words): human fibroblasts
Description: Cells from five culture flasks (180 cm2 growth area) were washed with cold phosphate buffered saline (PBS), harvested with the aid of a rubber policeman, sedimented at 1500 g for 5 min and suspended in 30 ml of ice-cold PBS. The cells were transferred into a Parr-cell disruption bomb, exposed to a nitrogen pressure of 900 psi for 15 min and disrupted by nitrogen cavitation [18] and the particulate fraction was obtained by centrifugation at 40000 g for 20 min. […] Hyaluronan synthesis was stopped by adding a solution of 10% sodium dodecylsuifate (SDS) to a final concentration of 1%. The mixtures were applied to descending paper chromatography that was developed with ethanol/aq. 1 M ammonium acetate pH 5.5 (13:7) as solvent. After 18 h the radioactivity of [14C]hyaluronan at the origin was determined.
Trypsinised fibroblasts were suspended in Dulbecco's medium at 10^5 cells/ml and 100 μl aliquots were transferred to a 96 well microtiter plate. The first row received 200 μl of the suspension and 20 μl of the multidrug resistance inhibitors dissolved in DMSO at concentrations of 4 mM. A serial dilution to the inhibitors was established by transfer of 100 μl aliquots from the first row to the following rows. All experiments were performed in duplicates. […] The cells were incubated for 2 days at 37° C. and aliquots (5 and 20 μl) of the culture medium were used for measurement of the hyaluronan concentration in the cell culture medium by an ELISA [19]. […] The mixtures were transferred to the hyaluronan-coated test plate and incubated for 1 hour at 37° C. The microtiter plate was washed three times with buffer A and incubated with 100 μl/well of a solution of streptavidin-horseraddish-peroxidase (Amersham) at a dilution of 1:100 in phosphate buffered saline, 0.1% Tween-20 for 30 min at room temperature. The plate was washed five times with buffer A and the colour was developed by incubation with a 100 μl/well of a solution of 5 mg o-phenylenediamine and 5 μl 30% H2O2 in 10 ml of 0.1 M citrate-phosphate buffer pH 5.3 for 25 min at room temperature. The adsorption was read at 490 nm. The concentrations in the samples were calculated from a logarithmic regression curve of the hyaluronan standard solutions.
Three parameters were measured: 1. The amount of hyaluronan produced during growth into the culture supernatant. 2. The hyaluronan synthase activity in particulate membrane fractions to eliminate the possibility that inhibition of hyaluronan production in cell culture could be caused indirectly by cellular mediators. 3. The effect on cell proliferation, because hyaluronan synthesis is also required for detachment during mitosis and growth of the human HT1080 cell line [14].

hyaluronan synthase = settings: for IC50: read-out: HA synthase activity (IC50), membranes of human fibroblasts
MRP5 = MRP5 (Homo sapiens, UniProt O15440); settings: cited from earlier work
MRP5, sequence (O15440 whole entry): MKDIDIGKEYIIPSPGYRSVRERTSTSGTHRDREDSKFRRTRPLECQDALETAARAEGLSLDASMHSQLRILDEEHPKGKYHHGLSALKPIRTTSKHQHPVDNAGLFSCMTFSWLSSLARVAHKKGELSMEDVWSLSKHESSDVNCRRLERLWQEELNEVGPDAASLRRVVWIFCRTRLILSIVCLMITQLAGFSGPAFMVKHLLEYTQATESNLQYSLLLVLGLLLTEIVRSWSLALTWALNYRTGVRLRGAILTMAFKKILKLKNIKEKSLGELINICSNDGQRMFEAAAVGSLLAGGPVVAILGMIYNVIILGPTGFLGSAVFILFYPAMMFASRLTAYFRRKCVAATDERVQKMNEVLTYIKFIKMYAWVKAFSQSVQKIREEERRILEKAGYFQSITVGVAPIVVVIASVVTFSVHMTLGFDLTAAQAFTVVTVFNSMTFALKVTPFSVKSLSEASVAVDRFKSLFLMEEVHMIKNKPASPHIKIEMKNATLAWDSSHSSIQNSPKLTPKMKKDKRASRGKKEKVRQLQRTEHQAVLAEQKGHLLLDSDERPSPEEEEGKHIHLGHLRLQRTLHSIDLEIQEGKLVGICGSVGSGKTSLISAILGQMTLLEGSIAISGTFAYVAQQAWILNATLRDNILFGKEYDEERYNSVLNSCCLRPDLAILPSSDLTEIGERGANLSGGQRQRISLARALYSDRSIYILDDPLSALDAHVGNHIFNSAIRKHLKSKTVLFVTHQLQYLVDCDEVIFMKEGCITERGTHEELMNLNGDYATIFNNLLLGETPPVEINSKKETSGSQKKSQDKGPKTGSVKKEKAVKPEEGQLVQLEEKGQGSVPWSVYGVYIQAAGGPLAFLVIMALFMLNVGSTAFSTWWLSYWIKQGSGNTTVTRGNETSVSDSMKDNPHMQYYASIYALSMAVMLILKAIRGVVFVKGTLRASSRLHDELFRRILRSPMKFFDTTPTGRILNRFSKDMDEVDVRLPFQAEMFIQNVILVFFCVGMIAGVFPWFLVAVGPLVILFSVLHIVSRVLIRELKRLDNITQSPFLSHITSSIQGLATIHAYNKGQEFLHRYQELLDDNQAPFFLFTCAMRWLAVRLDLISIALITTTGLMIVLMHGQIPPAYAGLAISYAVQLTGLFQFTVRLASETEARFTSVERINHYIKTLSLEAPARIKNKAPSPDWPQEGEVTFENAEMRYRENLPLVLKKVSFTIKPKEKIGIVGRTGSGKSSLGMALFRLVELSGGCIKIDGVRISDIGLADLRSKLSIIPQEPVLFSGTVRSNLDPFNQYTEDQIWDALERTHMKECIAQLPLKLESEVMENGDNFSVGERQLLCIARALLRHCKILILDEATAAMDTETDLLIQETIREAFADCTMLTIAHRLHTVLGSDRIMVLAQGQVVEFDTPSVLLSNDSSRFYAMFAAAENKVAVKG

MRP1 = MRP1 (Homo sapiens, UniProt P33527); settings: read-out: IC50, transport of 17β-glucuronosyl-estradiol by MRP1; substrate 17β-glucuronosyl-estradiol; cited from earlier work
MRP1, sequence (P33527 whole entry): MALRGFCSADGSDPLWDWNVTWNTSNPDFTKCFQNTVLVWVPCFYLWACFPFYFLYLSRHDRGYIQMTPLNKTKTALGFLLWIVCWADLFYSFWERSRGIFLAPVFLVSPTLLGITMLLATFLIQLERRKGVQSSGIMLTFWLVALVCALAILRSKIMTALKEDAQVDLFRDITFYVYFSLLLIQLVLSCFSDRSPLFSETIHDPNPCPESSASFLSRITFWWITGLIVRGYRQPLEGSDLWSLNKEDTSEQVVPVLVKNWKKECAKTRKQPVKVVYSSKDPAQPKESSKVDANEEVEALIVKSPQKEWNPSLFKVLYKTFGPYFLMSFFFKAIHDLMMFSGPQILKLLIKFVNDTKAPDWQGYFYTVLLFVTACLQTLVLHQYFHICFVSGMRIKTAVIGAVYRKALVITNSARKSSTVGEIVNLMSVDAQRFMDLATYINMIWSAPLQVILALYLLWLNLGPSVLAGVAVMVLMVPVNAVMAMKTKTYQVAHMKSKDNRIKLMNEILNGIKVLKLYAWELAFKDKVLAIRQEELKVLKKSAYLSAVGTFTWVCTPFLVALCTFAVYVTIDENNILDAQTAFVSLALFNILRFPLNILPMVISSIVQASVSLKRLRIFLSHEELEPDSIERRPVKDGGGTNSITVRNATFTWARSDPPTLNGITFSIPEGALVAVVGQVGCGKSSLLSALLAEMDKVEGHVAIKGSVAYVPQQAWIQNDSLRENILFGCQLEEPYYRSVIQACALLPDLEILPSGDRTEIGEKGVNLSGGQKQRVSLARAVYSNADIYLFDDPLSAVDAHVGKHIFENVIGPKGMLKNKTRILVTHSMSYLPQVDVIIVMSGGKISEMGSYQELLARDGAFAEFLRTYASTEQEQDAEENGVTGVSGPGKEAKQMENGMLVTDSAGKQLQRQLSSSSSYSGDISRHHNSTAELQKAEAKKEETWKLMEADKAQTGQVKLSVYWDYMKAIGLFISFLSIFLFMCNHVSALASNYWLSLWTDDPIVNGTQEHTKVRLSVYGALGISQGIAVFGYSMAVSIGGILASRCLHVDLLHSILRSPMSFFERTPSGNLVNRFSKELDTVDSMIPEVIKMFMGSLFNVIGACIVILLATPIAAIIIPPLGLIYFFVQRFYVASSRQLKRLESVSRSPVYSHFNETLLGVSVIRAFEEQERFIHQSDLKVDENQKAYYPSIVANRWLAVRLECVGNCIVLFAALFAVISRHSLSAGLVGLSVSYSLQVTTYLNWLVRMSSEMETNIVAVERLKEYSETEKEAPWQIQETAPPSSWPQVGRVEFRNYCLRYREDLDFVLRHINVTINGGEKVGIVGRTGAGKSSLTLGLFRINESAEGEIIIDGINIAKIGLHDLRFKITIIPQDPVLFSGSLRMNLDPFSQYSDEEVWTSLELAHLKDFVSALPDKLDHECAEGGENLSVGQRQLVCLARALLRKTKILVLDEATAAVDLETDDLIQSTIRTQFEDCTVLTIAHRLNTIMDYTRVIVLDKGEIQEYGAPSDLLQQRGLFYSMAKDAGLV

human skin fibroblasts = assay: Proliferation of human skin fibroblasts (cell counting); type: cell-based; settings: Homo sapiens, Skin fibroblast, read-out: Proliferation (IC50)
Description: Human fibroblasts were grown in […] in Dulbecco's modified Eagles medium supplemented with streptomycin/penicillin (100 units of each/ml), kanamycin (100 units/ml) and 10% foetal calf serum. Cell proliferation was determined by cell counting after trypsinisation three days after seeding.

MDR1 = MDR1 (Homo sapiens, UniProt P08183); settings: cited from earlier work
MDR1, sequence (P08183 whole entry): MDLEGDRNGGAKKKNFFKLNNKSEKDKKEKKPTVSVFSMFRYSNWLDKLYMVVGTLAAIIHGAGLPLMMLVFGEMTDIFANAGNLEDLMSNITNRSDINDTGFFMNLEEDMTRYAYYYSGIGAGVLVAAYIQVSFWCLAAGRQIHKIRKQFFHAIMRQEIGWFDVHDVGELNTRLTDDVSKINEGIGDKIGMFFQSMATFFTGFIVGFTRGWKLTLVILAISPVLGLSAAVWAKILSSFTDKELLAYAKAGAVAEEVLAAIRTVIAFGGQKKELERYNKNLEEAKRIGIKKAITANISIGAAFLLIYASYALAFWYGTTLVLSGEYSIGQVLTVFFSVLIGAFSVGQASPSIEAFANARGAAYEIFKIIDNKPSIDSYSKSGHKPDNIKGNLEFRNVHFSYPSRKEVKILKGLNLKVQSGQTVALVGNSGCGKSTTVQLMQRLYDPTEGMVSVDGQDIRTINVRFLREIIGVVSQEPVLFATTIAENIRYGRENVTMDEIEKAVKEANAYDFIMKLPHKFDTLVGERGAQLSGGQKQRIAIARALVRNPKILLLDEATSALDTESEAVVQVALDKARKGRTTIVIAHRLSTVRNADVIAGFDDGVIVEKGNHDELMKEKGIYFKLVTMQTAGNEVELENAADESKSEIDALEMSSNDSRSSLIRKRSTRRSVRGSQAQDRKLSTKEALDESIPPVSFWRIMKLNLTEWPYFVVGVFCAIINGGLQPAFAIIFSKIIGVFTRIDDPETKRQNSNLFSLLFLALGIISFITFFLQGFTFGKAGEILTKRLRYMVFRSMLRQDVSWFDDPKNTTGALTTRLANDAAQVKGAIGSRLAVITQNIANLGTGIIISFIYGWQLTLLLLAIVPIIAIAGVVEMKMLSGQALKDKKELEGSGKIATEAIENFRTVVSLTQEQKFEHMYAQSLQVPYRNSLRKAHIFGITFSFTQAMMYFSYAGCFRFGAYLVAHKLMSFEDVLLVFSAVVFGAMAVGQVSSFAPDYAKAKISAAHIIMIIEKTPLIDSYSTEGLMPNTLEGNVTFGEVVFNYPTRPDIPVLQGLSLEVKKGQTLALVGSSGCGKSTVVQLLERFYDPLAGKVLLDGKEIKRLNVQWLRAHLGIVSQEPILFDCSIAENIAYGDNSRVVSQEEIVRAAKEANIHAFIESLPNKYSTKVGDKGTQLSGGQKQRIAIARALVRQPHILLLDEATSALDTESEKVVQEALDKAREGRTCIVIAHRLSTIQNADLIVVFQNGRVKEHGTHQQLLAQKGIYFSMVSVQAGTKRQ

human fibroblasts [1] = assay: Hyaluronan production of human fibroblasts (ELISA of culture medium); type: cell-based; settings: for IC50: Fibroblast, read-out: HA production (IC50)
[2] = system: bovine articular cartilage; assay: Proteoglycan loss from interleukin-induced osteoarthritic bovine cartilage organ culture; type: cell-based; settings: different concentrations
Description: We analyzed the efficacy of several inhibitors in organ cultures of bovine articular cartilage that was induced to become osteoarthritic by interleukin.

MRP2 = MRP2 (Homo sapiens, UniProt Q92887); settings: cited from earlier work
MRP7 = molecular target: T1, MRP7 (Homo sapiens, UniProt Q5T3U5); settings: cited from earlier work
T1 sequence (Q5T3U5 1-1492): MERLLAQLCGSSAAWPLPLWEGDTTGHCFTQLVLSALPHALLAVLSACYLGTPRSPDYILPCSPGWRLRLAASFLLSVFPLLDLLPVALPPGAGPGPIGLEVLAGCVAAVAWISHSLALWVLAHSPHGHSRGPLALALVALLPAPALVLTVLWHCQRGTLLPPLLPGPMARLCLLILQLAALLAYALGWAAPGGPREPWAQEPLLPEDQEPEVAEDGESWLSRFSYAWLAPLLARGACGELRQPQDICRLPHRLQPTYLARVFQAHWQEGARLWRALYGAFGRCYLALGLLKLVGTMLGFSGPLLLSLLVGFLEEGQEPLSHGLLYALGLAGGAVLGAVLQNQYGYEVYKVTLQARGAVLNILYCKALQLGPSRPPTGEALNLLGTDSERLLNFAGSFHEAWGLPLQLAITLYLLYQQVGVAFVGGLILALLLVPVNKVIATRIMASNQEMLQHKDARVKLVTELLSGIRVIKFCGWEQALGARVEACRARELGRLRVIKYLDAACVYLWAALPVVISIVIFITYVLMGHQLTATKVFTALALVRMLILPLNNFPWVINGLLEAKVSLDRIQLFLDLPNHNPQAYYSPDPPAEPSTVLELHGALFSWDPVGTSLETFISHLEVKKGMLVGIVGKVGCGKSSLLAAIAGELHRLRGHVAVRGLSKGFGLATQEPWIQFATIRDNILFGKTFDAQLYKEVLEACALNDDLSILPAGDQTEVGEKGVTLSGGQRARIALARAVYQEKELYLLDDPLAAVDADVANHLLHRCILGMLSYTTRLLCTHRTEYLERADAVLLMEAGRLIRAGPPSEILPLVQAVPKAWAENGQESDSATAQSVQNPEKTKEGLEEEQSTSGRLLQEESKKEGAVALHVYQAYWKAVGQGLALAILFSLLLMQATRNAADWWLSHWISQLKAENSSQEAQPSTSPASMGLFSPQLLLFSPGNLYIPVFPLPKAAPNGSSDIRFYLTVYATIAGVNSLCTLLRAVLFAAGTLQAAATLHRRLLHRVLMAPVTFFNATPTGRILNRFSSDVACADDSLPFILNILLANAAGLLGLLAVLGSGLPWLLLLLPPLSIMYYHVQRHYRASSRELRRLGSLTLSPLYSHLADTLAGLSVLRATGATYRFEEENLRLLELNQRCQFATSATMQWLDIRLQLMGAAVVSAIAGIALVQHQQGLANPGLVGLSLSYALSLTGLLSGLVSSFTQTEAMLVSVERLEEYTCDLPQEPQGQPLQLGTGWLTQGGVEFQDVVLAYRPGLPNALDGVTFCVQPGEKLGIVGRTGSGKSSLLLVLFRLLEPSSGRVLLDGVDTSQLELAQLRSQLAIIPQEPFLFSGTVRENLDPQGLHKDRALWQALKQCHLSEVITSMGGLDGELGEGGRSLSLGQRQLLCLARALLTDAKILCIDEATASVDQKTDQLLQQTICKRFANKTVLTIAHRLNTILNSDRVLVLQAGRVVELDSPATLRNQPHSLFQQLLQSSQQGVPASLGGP

human fibroblasts [3] = assay: Export of endogenously synthesized [3H]hyaluronan from human fibroblasts; type: cell-based; settings: for [3H]hyaluronan: 50 μg/ml in pinocytotic media, 40 hours
Description: (§1) This experiment was performed to investigate, whether an excess of hyaluronan oligosaccharides introduced into the cytosol interfere with the export of hyaluronan synthesized by the human fibroblasts. Fibroblasts (4×10^4 cells) were seeded into culture flasks of 25 cm^2 growth areas and incubated for 24 hours. High molecular weight hyaluronan, hyaluronan oligosaccharides, a mixture of N-acetyl-glucosamine and glucuronic acid or control buffer were introduced into the cytosol by the method of osmotic lysis of pinocytotic vesicles. The concentrations of the added components in the pinocytotic media were 50 μg/ml. The cells were incubated for 40 hours in the presence of [3H]GlcN (8 μCi/ml, specific activity 29 Ci/mmole) and the amount of radioactive hyaluronan released into the culture medium was determined as described.
as §1, with “Ci/ml,” for “μCi/ml,”, “μCi/mmole)” for “Ci/mmole)”
This experiment was performed to investigate, whether both processes could be uncoupled. Fibroblasts were labelled with [3H]GlcN and hyaluronan oligosaccharides, high molecular weight hyaluronan or an equal mixture of GlcNac and GlcA were introduced into the cytosol. [3H]hyaluronan secreted into the medium was isolated by ion exchange chromatography and the radioactivity was determined.

MRP4 = molecular target: T2, MRP4 (Homo sapiens, UniProt O15439); settings: read-out: IC50, MRP4 mediated export of methotrexate; substrate methotrexate; cited from earlier work
T2 sequence (O15439 1-1325): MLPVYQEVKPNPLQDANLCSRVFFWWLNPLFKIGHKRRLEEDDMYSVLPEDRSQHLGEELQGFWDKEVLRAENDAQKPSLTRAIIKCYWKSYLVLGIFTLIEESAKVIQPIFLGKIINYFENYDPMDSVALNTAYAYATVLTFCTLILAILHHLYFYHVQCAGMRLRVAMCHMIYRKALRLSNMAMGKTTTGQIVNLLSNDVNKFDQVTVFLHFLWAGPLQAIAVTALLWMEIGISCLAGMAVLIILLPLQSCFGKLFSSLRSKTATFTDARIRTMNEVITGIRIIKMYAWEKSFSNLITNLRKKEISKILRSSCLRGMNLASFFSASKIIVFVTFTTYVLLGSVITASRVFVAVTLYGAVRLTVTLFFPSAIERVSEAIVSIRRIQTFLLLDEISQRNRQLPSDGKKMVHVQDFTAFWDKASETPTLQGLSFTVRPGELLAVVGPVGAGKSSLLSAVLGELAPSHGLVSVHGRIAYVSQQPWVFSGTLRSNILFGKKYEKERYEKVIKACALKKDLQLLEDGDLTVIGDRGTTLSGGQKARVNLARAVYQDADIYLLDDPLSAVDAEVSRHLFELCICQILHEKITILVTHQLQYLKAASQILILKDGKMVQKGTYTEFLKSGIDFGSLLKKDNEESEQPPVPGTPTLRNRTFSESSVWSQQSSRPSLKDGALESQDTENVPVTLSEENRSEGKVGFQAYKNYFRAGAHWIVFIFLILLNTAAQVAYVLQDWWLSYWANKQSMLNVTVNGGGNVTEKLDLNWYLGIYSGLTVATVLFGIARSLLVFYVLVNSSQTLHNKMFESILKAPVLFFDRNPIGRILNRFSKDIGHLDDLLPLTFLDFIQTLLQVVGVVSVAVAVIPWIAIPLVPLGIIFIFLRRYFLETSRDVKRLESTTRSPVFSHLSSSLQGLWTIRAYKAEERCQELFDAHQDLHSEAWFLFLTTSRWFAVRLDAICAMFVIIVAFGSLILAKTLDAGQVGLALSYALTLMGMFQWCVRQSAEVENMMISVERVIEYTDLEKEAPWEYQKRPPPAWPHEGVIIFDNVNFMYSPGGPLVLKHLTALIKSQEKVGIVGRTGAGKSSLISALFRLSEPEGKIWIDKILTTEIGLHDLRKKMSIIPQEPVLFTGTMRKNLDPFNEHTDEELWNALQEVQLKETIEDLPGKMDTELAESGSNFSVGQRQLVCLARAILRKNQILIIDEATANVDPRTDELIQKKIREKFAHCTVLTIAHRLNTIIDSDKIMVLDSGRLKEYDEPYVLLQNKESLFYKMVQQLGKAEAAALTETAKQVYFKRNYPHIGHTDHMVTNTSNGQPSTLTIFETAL

[4] = human fibroblasts, culture medium

MRP transporters, sequence (P33527 whole entry): as the sequence (P33527 whole entry) above

**Q.** Which IC50 (MRP transporters) does the source give for COc1ccc2c(c1)c(CC(=O)O)c(C)n2C(=O)c1ccc(Cl)cc1 [Indomethacin] here?
**A.** 10 to 20 µM

**Q.** What about the “inhibition of hyaluronan transport (words)” value (“inhibition … (words)” for short) (hyaluronan transport) of the same compound?
**A.** very good inhibition

**Q.** And the “inhibition … (words)” value (hyaluronan transport; listed as indomethacin)?
**A.** inhibited hyaluronan transport

**Q.** And the IC50 (hyaluronan synthase)?
**A.** 10 µM

**Q.** And the IC50 (MRP5; read-out: published inhibitory concentrations IC50 or Ki, MRP5)?
**A.** > 100 µM

**Q.** What about the IC50 (MRP5; substrate S-(2,4-dinitrophenyl)glutathione, read-out: IC50, MRP5 mediated transport of S-(2,4-dinitrophenyl)glutathione) of the same compound?
**A.** > 100 µM

**Q.** And the IC50 (MRP1)?
**A.** ~50 µM

**Q.** What about the IC50 (human skin fibroblasts) of the same compound?
**A.** 200 µM

**Q.** What about the IC50 (MDR1; read-out: IC50 for MDR1) of the same compound?
**A.** > 800 µM

**Q.** What about the IC50 (MDR1; read-out: published inhibitory concentrations IC50 or Ki, MDR1) of the same compound?
**A.** > 800 µM

**Q.** And the IC50 (human fibroblasts [1]; [4])?
**A.** 50 µM

**Q.** Which “protection from proteoglycan loss, safranin O histology” value [2] does the source give for N=C(N)NC(=O)c1nc(Cl)c(N)nc1N [amyloride] here?
**A.** only inhibitory at high concentrations

**Q.** For CC(C)COCC(CN(Cc1ccccc1)c1ccccc1)N1CCCC1 (stereo not shown) [bepidril], which “protection from proteoglycan loss, safranin O histology” value [2] is on record?
**A.** only inhibitory at high concentrations

**Q.** Which “inhibition … (words)” value (hyaluronan transport) does the source give for OCCN(CCO)c1nc(N2CCCCC2)c2nc(N(CCO)CCO)nc(N3CCCCC3)c2n1 [Dipyramidole] here?
**A.** effective inhibitor

**Q.** What about the IC50 (hyaluronan synthase) of the same compound?
**A.** ~1 µM

**Q.** And the IC50 (human fibroblasts [1]; Homo sapiens)?
**A.** 15 µM

**Q.** What does the source list for CN(C)C(=O)CCSC(SCCC(=O)O)c1cccc(/C=C/c2ccc3ccc(Cl)cc3n2)c1 (stereo not shown) [MK-571]?
**A.** inhibition of hyaluronan transport (words) (hyaluronan transport): did not inhibit; IC50 (MRP2): 469 µM; hyaluronan transport / synthase activity in membranes (hyaluronan synthase; membranes from human fibroblasts): less efficient; IC50 (hyaluronan synthase): > 100 µM; effect on MRP5 mediated transport of cGMP (MRP5; at concentrations up to 50 μM): no inhibitory effect; published inhibitory concentrations IC50 or Ki, MRP5 (MRP5): no; inhibition of 17β-glucuronosyl-estradiol export by MRP7 (MRP7; at 30 μM): 42%; IC50 (human skin fibroblasts): 150 µM; IC50 (human fibroblasts [1]; [4]): > 400 µM; concentrations at which hyaluronan secretion/production is inhibited (human fibroblasts [1]; human fibroblasts, inhibition only partial): above 100 μM

**Q.** With Hyaluronan as the compound, how does the [3H]hyaluronan (human fibroblasts [3]; Example 10 Table 2, buffer) read?
**A.** 10700 cpm

**Q.** And the “[3H]hyaluronan” value (human fibroblasts [3]; Example 11 Table 1, buffer 9436)?
**A.** 10723 cpm

**Q.** What about the “export of endogenous labelled hyaluronan” value (human fibroblasts [3]; introduced into the cytosol) of the same compound?
**A.** not

**Q.** What does the source list for COc1cc2c(cc1OC)-c1c/c(=N\c3c(C)cc(C)cc3C)n(C)c(=O)n1CC2 [Trequinsin]?
**A.** inhibition of hyaluronan transport (words) (hyaluronan transport): good inhibitor; IC50 (hyaluronan synthase): 60 µM; Ki (MRP5; substrate cAMP, read-out: Ki, MRP5 mediated transport of cAMP): 0.38 µM; Ki (MRP5; substrate cGMP, read-out: Ki, MRP5 mediated transport of cGMP): 0.24 µM; inhibition of export of 17β-glucuronosyl-estradiol by MRP7 (MRP7; at 100 μM): 44%; IC50 (human skin fibroblasts): 100 µM; IC50 (human fibroblasts [1]; [4]): 6 µM; IC50 (MRP4): ~10 µM

**Q.** Which IC50 (hyaluronan transport; Homo sapiens, Fibroblast, read-out: IC50 for hyaluronan transport (export)) does the source give for C/C=C/C[C@@H](C)C(=O)[C@H]1C(=O)N[C@@H](C(C)C)C(=O)N(C)CC(=O)N(C)[C@@H](CC(C)C)C(=O)N[C@@H](C(C)C)C(=O)N(C)[C@@H](CC(C)C)C(=O)N[C@@H](C)C(=O)N[C@H](C)C(=O)N(C)[C@@H](CC(C)C)C(=O)N(C)[C@@H](CC(C)C)C(=O)N(C)[C@@H](C(C)C)C(=O)N1C [Valspodar, cyclosporin D, 6-[(2S, 4R, 6E)-4-methyl-2 (methylamino)-3-oxo-6-octenoic acid]-(9CI)] here?
**A.** ~15 µM

**Q.** What about the IC50 (human skin fibroblasts) of the same compound?
**A.** 45 µM

**Q.** And the IC50 (human fibroblasts [1]; Homo sapiens)?
**A.** 15 µM
